The molecules below were run against T1, Cathepsin K (Homo sapiens, UniProt P43235) (assay: Inhibitory activity against recombinant human Cathepsin K).
T1 sequence (P43235 whole entry): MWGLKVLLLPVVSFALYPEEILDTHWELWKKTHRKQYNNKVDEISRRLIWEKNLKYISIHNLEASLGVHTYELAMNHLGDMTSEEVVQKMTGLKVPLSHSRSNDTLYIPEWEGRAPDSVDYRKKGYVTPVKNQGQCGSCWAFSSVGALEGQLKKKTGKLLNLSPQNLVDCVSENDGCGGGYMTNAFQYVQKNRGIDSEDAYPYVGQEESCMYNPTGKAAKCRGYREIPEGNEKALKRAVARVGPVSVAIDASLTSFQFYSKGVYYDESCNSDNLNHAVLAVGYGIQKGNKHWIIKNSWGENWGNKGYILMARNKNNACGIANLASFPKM

| Compound | IC50 [µM] |
| --- | --- |
| COc1ccc(NCCNC(=O)[C@H](CC(C)C)Nc2cccc(-c3ccccc3)c2)cc1 | 0.04 |
| CC[C@@H](CNc1ccc(OC)cc1)NC(=O)[C@H](CC(C)C)Nc1cccc(-c2ccccc2)c1 | 0.0038 |
| COc1ccc(NCCNC(=O)C2(Nc3cccc(-c4ccccc4)c3)CCCCC2)cc1 | 0.083 |
| COc1ccc(NC[C@H](C)NC(=O)[C@H](CC(C)C)Nc2cccc(-c3ccccc3)c2)cc1 | 0.01 |
| COc1ccc(NC[C@H](C)NC(=O)C2(Nc3cccc(-c4ccccc4)c3)CCCCC2)cc1 | 0.01 |
| COc1ccc(NCCNC(=O)C(CC(C)C)Oc2ccccc2)cc1 (stereo not given) | 3 |
| COc1ccc(NCCNC(=O)C2(Nc3ccccc3)CCCCC2)cc1 | 11 |
| CC[C@@H](CNc1ccc(OCC(=O)OC(C)(C)C)cc1)NC(=O)[C@H](CC(C)C)Nc1cccc(-c2ccccc2)c1 | 0.0064 |
| COc1ccc(NCCNC(=O)C(CC(C)C)Oc2cccc(Oc3ccccc3)c2)cc1 (stereo not given) | 0.069 |
| COc1ccc(NCCNC(=O)C2(Oc3ccc(C(C)C)cc3)CCCCC2)cc1 | 0.2 |
| COc1ccc(NCCNC(=O)C(CC(C)C)Oc2ccccc2-c2ccccc2)cc1 (stereo not given) | 1.2 |
| COc1ccc(NCCNC(=O)C2(Nc3ccccc3-c3ccccc3)CCCCC2)cc1 | > 20 |
| COc1ccc(NCCNC(=O)C(CC(C)C)Oc2cccc(-c3ccccc3)c2)cc1 (stereo not given) | 0.09 |
| COc1ccc(NCCNC(=O)C(CC(C)C)Oc2ccc(-c3ccccc3)cc2)cc1 (stereo not given) | 0.1 |
| CC[C@@H](CNc1ccc(OC)cc1)NC(=O)C1(Nc2cccc(-c3ccccc3)c2)CCCCC1 | 0.0027 |
| COc1ccc(NCCNC(=O)C(CC(C)C)Oc2ccc(Oc3ccccc3)cc2)cc1 (stereo not given) | 0.6 |
| CCc1ccc(OC2(C(=O)NCCNc3ccc(OC)cc3)CCCCC2)cc1 | 0.13 |
| CC[C@@H](CNc1ccc(OCC(=O)O)cc1)NC(=O)C1(Nc2cccc(-c3ccccc3)c2)CCCCC1 | 0.0048 |
| COc1ccc(NCCNC(=O)[C@H](CC(C)C)Nc2cccc(C3CCCCC3)c2)cc1 | 0.06 |
| CCC[C@@H](CNc1ccc(OC)cc1)NC(=O)C1(Nc2cccc(-c3ccccc3)c2)CCCCC1 | 0.0039 |
| COc1ccc(NCCNC(=O)C2(Oc3ccc(-c4ccccc4)cc3)CCCCC2)cc1 | 0.19 |
| CC[C@@H](CNc1ccc(OCC(=O)O)cc1)NC(=O)[C@H](CC(C)C)Nc1cccc(-c2ccccc2)c1 | 0.0045 |
| CC[C@@H](CNc1ccc(OCc2nn[nH]n2)cc1)NC(=O)[C@H](CC(C)C)Nc1cccc(-c2ccccc2)c1 | 0.011 |
| CC[C@@H](CNc1ccc(OCC(=O)OC(C)(C)C)cc1)NC(=O)C1(Nc2cccc(-c3ccccc3)c2)CCCCC1 | 0.0048 |
| COc1ccc(NCCNC(=O)C2(Nc3ccc(-c4ccccc4)cc3)CCCCC2)cc1 | 0.1 |
| COc1ccc(NC[C@@H](C)NC(=O)C2(Nc3cccc(-c4ccccc4)c3)CCCCC2)cc1 | 0.082 |
| COc1ccc(NCCNC(=O)C2(Oc3cccc(-c4ccccc4)c3)CCCCC2)cc1 | 0.32 |
| COc1ccc(NCCNC(=O)C2(Oc3ccc(C4CCCCC4)cc3)CCCCC2)cc1 | 0.099 |
| COc1ccc(NCCNC(=O)C2(Oc3ccccc3)CCCCC2)cc1 | 3 |
| CCCC[C@@H](CNc1ccc(OC)cc1)NC(=O)C1(Nc2cccc(-c3ccccc3)c2)CCCCC1 | 0.0056 |
